The source of these data is patent US10729817B2, “Medical device and plasticized nylon” (Medtronic Vascular, Inc., priority 2013, dated 2020).

A short description of data set [1]: Tensile test of pressed films, ASTM D638, INSTRON. The format is physicochemical. As to conditions: for Elongation / Tensile Modulus / Tensile Strength / Tensile elastic modulus: 10 wt-% plasticizer in RILSAN Nylon-12 film; for Elongation / Tensile Modulus / Tensile Strength: Nylon-12 unplasticized. The method, then:
(§1) Samples of 5, 10, and 15 wt-% of plasticizer from Example 1 were compounded with Nylon-12 in a Brabender mixer at 210° C. Sheets (30-mils thick) were pressed at 200° C. Tensile specimens were punched and tested on an INSTRON testing machine at a cross-head speed of 2 inches/minute according to ASTM D638 test Method. The flexural properties were tested according to ASTM D790-97B test method. The average tensile and flexural moduli of plasticized Nylon-12 are shown in FIG. 3 and FIG. 4, respectively.
(§2) A sample of 10 wt-% of plasticizer from each of Examples 15-17 was compounded with RILSAN Nylon-12 as described in Example 2. The melting point (mp) and crystallinity was determined by DSC.
(§3) A sample of 10 wt-% of plasticizer from each of Examples 4-5 and 19-20 was compounded with RILSAN Nylon-12 as described in Example 2. The melting point (mp) and crystallinity was determined by DSC.
A sample of 5-10 wt-% in RILSAN Nylon-12 was compounded with 5-10 wt-% plasticizer from Example 8 under similar conditions as in Example 9. Sheets (30-mils thick) were pressed at 200° C. from pellets. Tensile specimens were punched and tested on an INSTRON testing machine at a cross-head speed of 2 inches/minute according to ASTM D638 test Method.

Data set [2] can be described thus: Thermal properties of plasticized Nylon-12 by DSC. The format is physicochemical. Background: DSC measures the heat that a sample takes up or gives off during a temperature scan.
Data set [3] can be described thus: Thermal properties of plasticized Nylon-12 by DSC. The format is physicochemical. The note with it: for Crystallinity / mp: 10 wt-% plasticizer in RILSAN Nylon-12, Nylon-12 unplasticized. The method, then: as §1, §2, §3
Data set [4] is described as follows: Flexural properties of pressed films, ASTM D790-97B. The format is physicochemical. The note with it: for Flexural elastic modulus: 10 wt-% plasticizer in RILSAN Nylon-12 film. The protocol:
as §1

[5] abbreviates: 5, 10, 15 wt-% plasticizer in Nylon-12.
Where [6] appears, read: 5-10 wt-% plasticizer in RILSAN Nylon-12.
The mark [7] stands for this setting: 10 wt-% plasticizer in GRILAMID L25 Nylon-12.

Consider `CCCCCCCC(=O)NCCN(CCNC(=O)CCCCCCC)C(=O)CCCCCCC` [Example 1, N,N′,N″-trioctanoyl diethylenetriamine], for which the “Tensile modulus of Nylon-12 after adding the plasticizer” value in data set [1] (setting [5]) is “decreased”. Also, the ΔHm in data set [2] (5% plasticizer in Nylon-12) worked out at 60.2 J/g; in data set [2] (15% plasticizer in Nylon-12), 54.7 J/g; in data set [3] (10% plasticizer in Nylon-12), 58.2 J/g. Also, the entries for the “% Crystallinity” value in data set [2] (10% plasticizer in Nylon-12), in data set [3] (5% plasticizer in Nylon-12) and in data set [3] (15% plasticizer in Nylon-12) were 27.8%, 28.8% and 26.2%, respectively. The “Tm Melt peak” value in data set [2] (10% plasticizer in Nylon-12) worked out at 175.9 °C; in data set [2] (15% plasticizer in Nylon-12) it was 173.9 °C; in data set [3] (5% plasticizer in Nylon-12) it was 176.6 °C. Moreover, in data set [4] (setting [5]), the “Flexural modulus of Nylon-12 after adding the plasticizer” value was “decreased”.
With `CCCCCCC(=O)NCCN(CCNC(=O)CCCCCC)C(=O)CCCCCC` [Example 4, N,N′,N″-triheptanoyl diethylenetriamine], in data set [1] (Table 3), the Elongation is on record as 231%, the “Tensile Modulus” value turned out to be 66588 psi and the “Tensile Strength” value is on record as 7422 psi. For the same compound, in data set [3] (Table 3), the Crystallinity is listed as 29.8 % by DSC and the mp turned out to be 175.2 °C.
The like results for `CCCCCCCCC(=O)NCCN(CCNC(=O)CCCCCCCC)C(=O)CCCCCCCC` [Example 5, N,N′,N″-trinonanoyl diethylenetriamine] were, in that order, 226%, 74935 psi, 7411 psi, 29.2 % by DSC and 176.0 °C.
Take `CCCCCCCC(=O)NCCN(CCNC(=O)CCCCCCC)C(=O)CCCCCCC` [Example 8, N,N′,N″-trioctanoyl diethylenetriamine]: in data set [1] (setting [6]), the “Tensile modulus versus plasticizer content” value is listed as “decreased with increasing plastic content” and the “Tensile strength versus plasticizer content” value is listed as “did not change”. In data set [1] (setting [7]), the “Tensile strength of base resin GRILAMID L25 after adding plasticizer” value is listed as “maintained”. The compound also registered a Tensile elastic modulus in data set [1] (listed as unpurified material) of 82997 psi. Moreover, the “Flexural modulus after adding plasticizer” value in data set [4] (setting [7]) is reported as “decreased significantly”. The Flexural elastic modulus in data set [4] (listed as unpurified material) came to 72345 psi.
In the case of `CCCCCCCC(=O)NCCN(CCNC(=O)CCCCCCC)C(=O)CCCCCCC` [Example 13, N,N′,N″-trioctanoyl diethylenetriamine], the melting point – broadly, the temperature, or range, at which the solid turns liquid – came out at 97.9 °C. Moreover, the Tensile elastic modulus in data set [1] is 85644 psi. In addition, the Flexural elastic modulus in data set [4] amounted to 71839 psi.
For the compound `CCCCCCC(=O)NCCCN(CCNC(=O)CCCCCC)C(=O)CCCCCC` [Example 16, N-(2-aminoethyl)-1,3-propanediamine heptanoic acid triamide], in data set [1] (Table 2), the Elongation is 258%, the “Tensile Modulus” value turned out to be 83455 psi and the “Tensile Strength” value is given as 8637 psi. Also, in data set [3] (Table 2), the Crystallinity was found to be 24.6 % by DSC and the mp came out at 175.6 °C.
On the same counts, the results for `CCCCCCCC(=O)NCCCN(CCNC(=O)CCCCCCC)C(=O)CCCCCCC` [Example 17, N-(2-aminoethyl)-1,3-propanediamine octanoic acid triamide] are 263%, 81308 psi, 8871 psi, 25.2 % by DSC and 175.5 °C.
On the same counts, the results for `CCCCCCCC(=O)NCCN(CCN(CCNC(=O)CCCCCCC)C(=O)CCCCCCC)C(=O)CCCCCCC` [Example 18, Triethylenetetramine Octanoic Acid Tetramide] are 238%, 95902 psi, 9079 psi, 26.7 % by DSC and 176.2 °C.
`CCCCCCCCCC(=O)NCCN(CCNC(=O)CCCCCCCCC)C(=O)CCCCCCCCC` [Example 20, N,N′,N″-tridecanoyl diethylenetriamine]: in data set [1] (Table 3), the Elongation was found to be 251%, the “Tensile Modulus” value came to 83517 psi and the “Tensile Strength” value worked out at 8034 psi. In addition, in data set [3] (Table 3), the Crystallinity is 31.0 % by DSC and the mp is 175.9 °C.
